Data as given in paper doi:10.1101/2024.06.03.597093v3 (biorxiv, 2024).
Like-named read-outs stand apart in the source and are kept apart here.

Assays:
β2AR-NlucC (β2AR) [1] = molecular target: T1, β2AR-NlucC (β2AR) (Homo sapiens, UniProt P07550); assay: cell-based; settings: HEK-293T, read-out: Mini-G Protein Recruitment / Emax (%) ± SEM
β1AR-NlucC (CRISPR) = β1AR-NlucC (CRISPR) (Homo sapiens, UniProt P08588); settings: CRISPR receptor; relative to adrenaline; agonist
β2AR-NlucC (CRISPR) = β2AR-NlucC (CRISPR) (Homo sapiens, UniProt P07550); assay: cell-based; settings: HEK-293T, read-out: CRISPR_receptor Emax
β2AR-NlucC (CRISPR), sequence (P07550 whole entry): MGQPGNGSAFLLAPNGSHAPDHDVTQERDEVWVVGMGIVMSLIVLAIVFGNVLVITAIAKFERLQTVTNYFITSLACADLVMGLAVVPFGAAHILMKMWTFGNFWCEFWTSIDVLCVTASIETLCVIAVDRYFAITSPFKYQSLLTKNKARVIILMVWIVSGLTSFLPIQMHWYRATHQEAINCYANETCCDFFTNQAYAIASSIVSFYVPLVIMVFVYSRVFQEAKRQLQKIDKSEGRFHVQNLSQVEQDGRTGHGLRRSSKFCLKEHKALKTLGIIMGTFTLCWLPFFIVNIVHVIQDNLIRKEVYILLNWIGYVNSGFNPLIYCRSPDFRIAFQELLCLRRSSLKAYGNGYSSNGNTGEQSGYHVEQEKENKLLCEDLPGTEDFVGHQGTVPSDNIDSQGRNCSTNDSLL

β2AR-NlucC (β2AR) [2] = molecular target: T1, β2AR-NlucC (β2AR); assay: cell-based; settings: HEK-293T, read-out: CRISPR_mGs Emax

T1 sequence (P07550 whole entry): as above
β1AR-NlucC (CRISPR), sequence (P08588 whole entry): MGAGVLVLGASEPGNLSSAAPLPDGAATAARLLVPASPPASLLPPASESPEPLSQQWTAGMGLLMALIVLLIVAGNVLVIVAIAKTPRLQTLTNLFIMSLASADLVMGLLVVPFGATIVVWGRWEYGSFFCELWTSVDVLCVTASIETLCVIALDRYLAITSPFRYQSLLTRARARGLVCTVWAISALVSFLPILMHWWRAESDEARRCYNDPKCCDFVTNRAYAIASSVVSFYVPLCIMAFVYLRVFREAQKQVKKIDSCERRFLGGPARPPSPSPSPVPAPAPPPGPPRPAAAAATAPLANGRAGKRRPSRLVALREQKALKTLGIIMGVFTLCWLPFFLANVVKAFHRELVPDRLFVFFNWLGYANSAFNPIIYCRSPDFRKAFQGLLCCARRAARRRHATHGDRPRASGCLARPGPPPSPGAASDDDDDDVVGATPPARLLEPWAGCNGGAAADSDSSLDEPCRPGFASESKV

For NC[C@H](O)c1ccc(O)c(O)c1 [noradrenaline], the Emax (β2AR-NlucC (β2AR) [1]) was 85 ± 2%, the “CRISPR_receptor Emax” value (β1AR-NlucC (CRISPR)) was 109 ± 7% and the Emax (β2AR-NlucC (CRISPR)) was 61 ± 7%. For the same molecule, the Emax (β2AR-NlucC (β2AR) [2]) was 51 ± 4%.
